These results are taken from patent US11004539B2, “Predicting metabolic side effects of transported drugs” (The Regents of the University of California, priority 2016, dated 2021).

Broadly, the Ki is a dissociation constant, usually derived from enzyme kinetics or from competition with a known ligand. The term IC50 denotes the concentration at which inhibition is half-maximal. Read a high IC50 as weaker potency in that assay.

The target of series [1] is T1, OAT3 (Mus musculus, UniProt O88909).
T1 sequence (O88909 1-537): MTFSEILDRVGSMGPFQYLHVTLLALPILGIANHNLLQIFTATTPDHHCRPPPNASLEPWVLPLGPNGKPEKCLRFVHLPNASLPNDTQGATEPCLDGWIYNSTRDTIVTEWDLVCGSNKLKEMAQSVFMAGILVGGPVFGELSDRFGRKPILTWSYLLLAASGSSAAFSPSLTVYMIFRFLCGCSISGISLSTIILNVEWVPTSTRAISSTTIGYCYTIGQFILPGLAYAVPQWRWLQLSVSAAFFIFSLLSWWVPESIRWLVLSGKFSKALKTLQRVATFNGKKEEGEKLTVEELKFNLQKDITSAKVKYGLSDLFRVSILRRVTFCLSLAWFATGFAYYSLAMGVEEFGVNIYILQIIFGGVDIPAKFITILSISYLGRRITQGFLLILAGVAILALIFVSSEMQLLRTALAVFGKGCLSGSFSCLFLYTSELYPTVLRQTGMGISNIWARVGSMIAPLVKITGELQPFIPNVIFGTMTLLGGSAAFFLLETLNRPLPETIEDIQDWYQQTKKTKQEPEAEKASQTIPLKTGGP
The experiment in a line: Plasma metabolomics profiling of Oat3KO versus wild-type mice. The conditions noted are these: Oat3KO vs wild type mice.

Series [2] has as its target T2, OAT1 (Mus musculus, UniProt Q8VC69).
T2 sequence (Q8VC69 1-545): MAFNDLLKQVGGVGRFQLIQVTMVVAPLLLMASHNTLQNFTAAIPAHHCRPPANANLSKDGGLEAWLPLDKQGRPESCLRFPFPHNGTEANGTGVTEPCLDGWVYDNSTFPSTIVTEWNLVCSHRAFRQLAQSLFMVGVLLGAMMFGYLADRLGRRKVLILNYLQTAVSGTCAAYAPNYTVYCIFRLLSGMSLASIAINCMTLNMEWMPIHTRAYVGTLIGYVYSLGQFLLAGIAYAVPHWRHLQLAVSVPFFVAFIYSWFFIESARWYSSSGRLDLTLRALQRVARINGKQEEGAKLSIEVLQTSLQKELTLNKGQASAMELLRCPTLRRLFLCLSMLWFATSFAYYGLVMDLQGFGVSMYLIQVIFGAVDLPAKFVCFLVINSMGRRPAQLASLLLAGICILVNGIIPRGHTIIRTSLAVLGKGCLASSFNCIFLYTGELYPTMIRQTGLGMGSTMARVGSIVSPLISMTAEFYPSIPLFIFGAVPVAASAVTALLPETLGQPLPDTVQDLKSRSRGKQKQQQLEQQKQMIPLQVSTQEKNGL
The experiment in a line: Uptake inhibition assay in Oat1-transfected CHO cells (6-carboxyfluorescein tracer). Also noted: expressed in transfected cells; host or cells: CHO cells. The conditions noted are these: for Ki: read-out: calculated Ki; for interaction with OAT1 in in vitro assays: set of 8 predicted metabolites tested. The class given is cell-based. The protocol: (A) The IC50 curves for the metabolites characterized in the in vitro uptake inhibition assay using CHO stably expressing Oat1. […] (B) The table summarizes the calculated Ki and metabolic pathways the characterized metabolites were involved in.
Oat1-transfected CHO cells cultured on 96-well plates were incubated in the presence of 10 μM 6-carboxyfluorescein with or without individual metabolites (with controls treated with the OAT1 inhibitor probenecid). The IC50 curves for novel ligands were plotted in Prism Software (GraphPad Inc., San Diego, Calif.), and the IC50 values were converted to Ki (inhibition affinity) using the Cheng-Prusoff equation.

Series [3] deals with T2, OAT1.
The target in series [4] is T1, OAT3. The conditions noted are these: OAT3-expressing cells; 5-carboxyfluorescein as fluorescent tracer.
The target of series [5] is T1, OAT3. The experiment in a line: cell-based.
Series [6] addresses T2, OAT1. The series is described as follows: cell-based.
Series [7] has as its target T2, OAT1. The experiment in a line: Uptake inhibition assay, CHO cells constitutively expressing mouse Oat1. Conditions: 6-carboxyfluorescein as fluorescent tracer.
Series [8] deals with T2, OAT1. Conditions: OAT1 vs OAT3; cited from earlier work.
The target in series [9] is T1, OAT3. The conditions noted are these: in vivo.
The mark [10] stands for this setting: statistical significance not achieved.

Structures can show the parent of a compound that is named as a salt. Where two headings read alike, the source gives them in different places.

In the case of `CCCCCCCCC(O)C(=O)O` (stereo not drawn) [2-hydroxydecanoate], the “change in plasma of the Oat3KO” value in [1] is reported as “altered”.
The same measure, in the same setting: the value for `CCCC(O)CC(=O)O` (stereo not drawn) [3-hydroxyhexanoate] was “altered”; that for `O=S(=O)(O)Oc1c[nH]c2ccccc12` [3-indoxyl sulfate] was “accumulate in the plasma”.
Still for that read-out and setting: then `C[C@H](CCC(=O)O)[C@H]1CC[C@H]2[C@@H]3C(=O)C[C@@H]4C[C@H](O)CC[C@]4(C)[C@H]3C[C@H](O)[C@]12C` [7-ketodeoxycholate], with “significantly increased”.
Take `O=C(O)CCCCCCCCCCCCCCCO` [16-hydroxy-hexadecanoic acid]: in series [2], the inhibition constant Ki was 13 µM and the “interaction with OAT1 in in vitro assays” value is “directly interacting with OAT1”.
On to `COc1cc(N)c(Cl)cc1C(=O)NC1CCN(CCCOc2ccc(F)cc2)CC1OC` (stereo not drawn) [Cisapride], for which the “IC50 OAT1” value in series [3] is given as “No inhibition”. Also, in series [4], the “IC50 OAT3” value is on record as “No ihhibition”.
On to `NC(=O)C(c1ccccc1)(c1ccccc1)[C@@H]1CCN(CCc2ccc3c(c2)CCO3)C1` [Darifenacin], for which the IC50 in [5] was 198 µM; in [6], 807 µM.
Regarding `CCCCN(CCCC)CCC(O)c1cc2c(Cl)cc(Cl)cc2c2cc(C(F)(F)F)ccc12` (stereo not drawn) [Halofantrine], the “IC50 OAT3” value in [4] is reported as “No inhibition”. Further, the “IC50 OAT1” value in series [7] is given as “No inhibition”.
The compound `CN(C)C(=O)C(CCN1CCC(O)(c2ccc(Cl)cc2)CC1)(c1ccccc1)c1ccccc1` [Loperamide] came in with a concentration for half-maximal inhibition (IC50) in series [5] of 95 µM. Also, the “IC50 OAT1” value in [7] was “No significant”.
As to `CC(=O)N[C@@H](CC(=O)c1ccccc1N)C(=O)O` [N-acetylkynurenine], the “change in plasma of the Oat3KO” value in [1] was “accumulate in the plasma”.
For the compound `CC(=O)N[C@@H](Cc1c[nH]c2ccccc12)C(=O)O` [N-acetyltryptophan], the “change in plasma of the Oat3KO” value in series [1] was “accumulate in the plasma”.
As for `OC(CNCC(O)C1CCc2cc(F)ccc2O1)C1CCc2cc(F)ccc2O1` (stereo not drawn) [Nebivolol], in series [3], the “IC50 OAT1” value is given as “No significant”. In series [5], this compound registered an IC50 of 169 µM.
For `Cc1nc2n(c(=O)c1CCN1CCC(c3noc4cc(F)ccc34)CC1)CCCC2O` (stereo not drawn) [Paliperidone], the figures for the concentration for half-maximal inhibition (IC50) in [5] and in series [6] were 260 µM and 1080 µM, respectively.
Regarding `CCCN(CCC)S(=O)(=O)c1ccc(C(=O)O)cc1` [Probenecid], half-maximal inhibition in series [5] (IC50) was put at 33 µM.
For `C[C@H](CCC(=O)O)[C@H]1CC[C@H]2[C@@H]3[C@@H](O)[C@@H](O)[C@@H]4C[C@H](O)CC[C@]4(C)[C@H]3CC[C@]12C` [beta-muricholate], the “increase in plasma of the Oat3KO” value in series [1] (significantly altered) is “over 24 fold”.
Consider `C[C@H](CCC(=O)O)[C@H]1CC[C@H]2[C@@H]3[C@H](O)C[C@@H]4C[C@H](O)CC[C@]4(C)[C@H]3CC[C@]12C` [chenodeoxycholate], for which, in series [1] (setting [10]), the “change in plasma of the Oat3KO” value is reported as “increased”.
Take `C[C@H](CCC(=O)O)[C@H]1CC[C@H]2[C@@H]3[C@H](O)C[C@@H]4C[C@H](O)CC[C@]4(C)[C@H]3C[C@H](O)[C@]12C` [cholate]: the “increase in plasma of the Oat3KO” value in series [1] (significantly altered) is listed as about 160 fold.
On to `CN/C(=N/CCSCc1nc[nH]c1C)NC#N` [cimetidine], for which, in series [8], the “affinity for OAT1 compared to OAT3, fold less” value is recorded as “roughly 10 fold”.
Take `Nc1nc2c(c(=O)[nH]1)N=C(CNc1ccc(C(=O)N[C@@H](CCC(=O)O)C(=O)O)cc1)CN2` [dihydrofolic acid]: in series [2], the Ki was 93 µM and the “interaction with OAT1 in in vitro assays” value was “directly interacting with OAT1”.
As for `C[C@H](CCC(=O)NCC(=O)O)[C@H]1CC[C@H]2[C@@H]3[C@H](O)C[C@@H]4C[C@H](O)CC[C@]4(C)[C@H]3C[C@H](O)[C@]12C` [glycocholate], the “change in plasma of the Oat3KO” value in series [1] (setting [10]) is on record as “increased”.
`O=C(O)c1c[nH]c2ccccc12` [indole-3-carboxylic acid]: the “change in plasma of the Oat3KO” value in series [1] is on record as “accumulate in the plasma”.
On to `O=C(O)C(O)Cc1c[nH]c2ccccc12` (stereo not drawn) [indolelactate], for which the “change in plasma of the Oat3KO” value in series [9] was “accumulate in the plasma”.
Consider `Cc1ccc(OS(=O)(=O)O)cc1` [p-cresol sulfate], for which, in series [1], the “change in plasma of the Oat3KO” value was “significantly increased”.
Take `Cc1ccc(O[C@@H]2O[C@H](C(=O)O)[C@@H](O)[C@H](O)[C@H]2O)cc1` [p-cresol-glucuronide]: the “change in plasma of the Oat3KO” value in [1] is recorded as “significantly increased”.
For `CCCCCC/C=C\CCCCCCCC(=O)O` [palmitoleic acid], in series [2], the inhibition constant (Ki) is 200 µM and the “interaction with OAT1 in in vitro assays” value is given as “directly interacting with OAT1”.
Take `O=S(=O)(O)Oc1ccccc1` [phenol sulfate]: the “change in plasma of the Oat3KO” value in series [1] is “significantly increased”.
Take `CCCCC[C@H](O)/C=C/[C@H]1[C@H](O)CC(=O)[C@@H]1CCCCCCC(=O)O` [prostaglandin E1]: in series [2], the Ki was 12 µM and the “interaction with OAT1 in in vitro assays” value was “directly interacting with OAT1”.
With `O=C(O)CCCCCCCCC(=O)O` [sebacate], in [1], the “change in plasma of the Oat3KO” value is reported as “altered”.
On the same count and under the same terms, then `NCCc1c[nH]c2ccc(O)cc12` [serotonin], with “accumulate in the plasma”.
Consider `C[C@H](CCC(=O)NCCS(=O)(=O)O)[C@H]1CC[C@H]2[C@@H]3[C@@H](O)[C@@H](O)[C@@H]4C[C@H](O)CC[C@]4(C)[C@H]3CC[C@]12C` [tauro-beta-muricholate], for which, in [1] (setting [10]), the “change in plasma of the Oat3KO” value is “increased”.
Consider `C[C@H](CCC(=O)NCCS(=O)(=O)O)[C@H]1CC[C@H]2[C@@H]3[C@H](O)C[C@@H]4C[C@H](O)CC[C@]4(C)[C@H]3CC[C@]12C` [taurochenodeoxycholate], for which, in series [1] (did not reach statistical significance), the “increase in plasma of the Oat3KO” value was about 30 fold.
For `C[C@H](CCC(=O)NCCS(=O)(=O)O)[C@H]1CC[C@H]2[C@@H]3CC[C@@H]4C[C@H](O)CC[C@]4(C)[C@H]3C[C@H](O)[C@]12C` [taurodeoxycholate], the “change in plasma of the Oat3KO” value in [1] (setting [10]) was “increased over ten-fold”.
Still for that read-out and setting: the value for `C[C@H](CCC(=O)NCCS(=O)(=O)[O-])[C@H]1CC[C@H]2[C@@H]3C[C@H](O)[C@@H]4C[C@H](O)CC[C@]4(C)[C@H]3CC[C@]12C.[Na+]` [taurohyodeoxycholic acid] was “increased over ten-fold”.
Still for that read-out and setting: the value for `C[C@H](CCC(=O)NCCS(=O)(=O)O)[C@H]1CC[C@H]2[C@@H]3[C@@H](O)C[C@@H]4C[C@H](O)CC[C@]4(C)[C@H]3CC[C@]12C` [tauroursodeoxycholate] was “increased over ten-fold”.
For `O=C(O)CCCCCCCCCCCCC(=O)O` [tetradecanedioate], the “change in plasma of the Oat3KO” value in series [1] is given as “altered”.
As to `C[C@H](CCC(=O)O)[C@H]1CC[C@H]2[C@@H]3[C@@H](O)C[C@@H]4C[C@H](O)CC[C@]4(C)[C@H]3CC[C@]12C` [ursodeoxycholate], the “change in plasma of the Oat3KO” value in series [1] is on record as “significantly increased”.
For the compound equol glucuronide, the “increase in plasma of the Oat3KO” value in series [1] (significantly altered) was “more than 42 fold”.
On the same count and under the same terms, the value for equol sulfate was “more than 7 fold”.
